Test results published in US20190315806A1, “POLYMYXIN DERIVATIVE, PREPARATION METHOD AND APPLICATION THEREOF” (priority 2016, published 2019).
Converted amounts (≈) assume the structure as drawn. Where two headings read alike, the source gives them in different places. Where a SMILES comes first, the peptide text is derived from it. Bridges are numbered along the chain shown (N, C = ends). [ ]: non-standard residue; d: D form. The star is where a group is joined. dPhe(4-NH2) = Nc1ccc(C[C@@H](N)C(=O)O)cc1; Heptanoyl(6-Me) = CC(C)CCCCC(=O)*; Octanoyl(7-Me) = CC(C)CCCCCC(=O)*; X2 = CC[C@H](C)CCCCC(=O)*; dDab = NCC[C@@H](N)C(=O)O; Octanoyl = CCCCCCCC(=O)*; Dab = NCC[C@H](N)C(=O)O; Nva = CCC[C@H](N)C(=O)O; X3 = CCCCC(=O)CC(=O)*

Experiments:
Type in all cases: cell-based
[1] = system: Acinetobacter baumannii ATCC 19606
Method in brief: (§1)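 Agar dilution per CLSI; drug mixed into molten agar at twofold steps from 0.03 to 128 μg/mL (final). Inoculum 10^4 CFU/dot, multipoint. Incubation 35° C., 18–24 h; MIC = lowest concentration with no colonies.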

[2] = system: Escherichia coli ATCC 25922
Method in brief: as §1

[3] = system: Pseudomonas aeruginosa ATCC 27853
Method in brief: as §1

[4] = system: Staphylococcus epidermidis ATCC 12228
Method in brief: as §1

[5] = system: Klebsiella pneumoniae ATCC BAA-2146 (NDM-1); test: Antibacterial activity, MIC by dish double dilution method
Method in brief: as §1

[6] = Nephrotoxicity test, renal cytotoxicity by MTT method; details: African green monkey
Procedure: African green monkey kidney cells (Vero cells) were cultured in MEM medium (Hyclone), 10% fetal calf serum (Invitrogen) was added before use, cultured at 37° C. under 5% CO2.
Experiment was carried out using MTT method. After digestion, cells in logarithmic growth phase were counted, then the cells were inoculated in a 96-well culture plate. After incubation for 24 h to be adherent, cells were treated with a concentration gradient of a compound of the invention (e.g., a compound prepared in the Embodiments) and the controls. After 72 h, the culture solution was removed, 100 uL of MTT reagent at a concentration of 0.5 mg/ml was added, the medium was removed after incubating for 3 hours in a 37° C. incubator. Add 150 μL DMSO solvent to each well, mix for 3 min, after which the absorbance at 570 nm (A) was measured with a microplate reader.
Cell viability %=(Adosed cell−Abackground)/(Acontrol cell−Abackground)×100%. The average value of 3 parallel wells was taken for each detection point, and the inhibition curve was drawn to calculate the IC50 value.
The African green monkey kidney cells (Vero cells) used in the experiment were from the Cell Resource Center of the Institute of Basic Medicine, Chinese Academy of Medical Sciences.

[7] = agar dilution, 10^4 CFU/dot, 18 to 24 hours at 35° C.

SMILES	MIC A. baumannii ATCC 19606 ([1]; ATCC 19606) [mg/L]	MIC E. coli ATCC 25922 ([2]; ATCC 25922) [mg/L]	MIC P. aeruginosa ATCC 27853 ([3]; ATCC 27853) [mg/L]	MIC S. epidermidis ATCC 12228 ([4]; ATCC 12228) [mg/L]	MIC K. pneumoniae ATCC BAA-2146 (NDM-1) ([5]; ATCC BAA-2146) [mg/L]	IC50 at 72 h [6] [mg/L]	MIC A. baumannii ATCC 19606 [1, 7] [mg/L]	MIC E. coli ATCC 25922 [2, 7] [mg/L]	MIC P. aeruginosa ATCC 27853 [3, 7] [mg/L]	MIC S. epidermidis ATCC 12228 [4, 7] [mg/L]	MIC K. pneumoniae ATCC BAA-2146 (NDM-1) [5, 7] [mg/L]	IC50 at 72 h ([6]; MTT, 72 h treatment, 3 parallel wells, read-out: Renal cytotoxicity IC50, Vero cells) [mg/L]
CC(C)CCCCCC(=O)N[C@@H](CCN)C(=O)N[C@H](C(=O)N[C@@H](CCN)C(=O)N[C@H]1CCNC(=O)[C@H]([C@@H](C)O)NC(=O)[C@H](CCN)NC(=O)[C@H](CCN)NC(=O)[C@H](CC(C)C)NC(=O)[C@@H](CC(C)C)NC(=O)[C@H](CCN)NC1=O)[C@@H](C)O [Compound 86, 7-methyloctanoyl-Dab-Thr-Dab-ring(4-10)[Dab-Dab-D-Leu-Leu-Dab-Dab-Thr]] ({Octanoyl(7-Me)}-[Dab]T[Dab][Dab][Dab][dL]L[Dab][Dab]T; lactam 4-C)	1 (≈ 0.855 µM)	1 (≈ 0.855 µM)	2 (≈ 1.71 µM)	64 (≈ 54.7 µM)	1 (≈ 0.855 µM)	87 ± 6.98 (≈ 74.4 µM)	–	–	–	–	–	–
CC(C)CCCCC(=O)N[C@@H](CCN)C(=O)N[C@H](C(=O)N[C@@H](CCN)C(=O)N[C@H]1CCNC(=O)[C@H](CC(C)C)NC(=O)[C@H](CCN)NC(=O)[C@H](CCN)NC(=O)[C@H](CC(C)C)NC(=O)[C@@H](Cc2ccccc2)NC(=O)[C@H](CCN)NC1=O)[C@@H](C)O [Compound 128, 6-methylheptanoyl-Dab-Thr-Dab-ring(4-10)[Dab-Dab-D-Phe-Lue-Dab-Dab-Lue]] ({Heptanoyl(6-Me)}-[Dab]T[Dab][Dab][Dab][dF]L[Dab][Dab]L; lactam 4-C)	4 (≈ 3.33 µM)	4 (≈ 3.33 µM)	4 (≈ 3.33 µM)	16 (≈ 13.3 µM)	4 (≈ 3.33 µM)	30.1 ± 2.59 (≈ 25 µM)	–	–	–	–	–	–
CC(C)CCCCC(=O)N[C@@H](CCN)C(=O)N[C@H](C(=O)N[C@H](CCN)C(=O)N[C@H]1CCNC(=O)[C@H]([C@@H](C)O)NC(=O)[C@H](CCN)NC(=O)[C@H](CCN)NC(=O)[C@H]([C@@H](C)O)NC(=O)[C@@H](CC(C)C)NC(=O)[C@H](CCN)NC1=O)[C@@H](C)O [Compound 31, 6-methylheptanoyl-Dab-Thr-D-Dab-ring(4-10)[Dab-Dab-D-Leu-Thr-Dab-Dab-Thr]] ({Heptanoyl(6-Me)}-[Dab]T[dDab][Dab][Dab][dL]T[Dab][Dab]T; lactam 4-C)	0.5 (≈ 0.437 µM)	0.5 (≈ 0.437 µM)	1 (≈ 0.875 µM)	>128	0.5 (≈ 0.437 µM)	288 ± 23.3 (≈ 252 µM)	–	–	–	–	–	–
CC(C)CCCCC(=O)N[C@@H](CCN)C(=O)N[C@H](C(=O)N[C@@H](CCN)C(=O)N[C@H]1CCNC(=O)[C@H]([C@@H](C)O)NC(=O)[C@H](CCN)NC(=O)[C@H](CCN)NC(=O)[C@H]([C@@H](C)O)NC(=O)[C@@H](CC(C)C)NC(=O)[C@H](CCN)NC1=O)[C@@H](C)O [Compound 103, 6-methylheptanoyl-Dab-Thr-Dab-ring(4-10)[Dab-Dab-D-Leu-Thr-Dab-Dab-Thr]] ({Heptanoyl(6-Me)}-[Dab]T[Dab][Dab][Dab][dL]T[Dab][Dab]T; lactam 4-C)	1 (≈ 0.875 µM)	0.5 (≈ 0.437 µM)	0.5 (≈ 0.437 µM)	>128	0.5 (≈ 0.437 µM)	276 ± 17.7 (≈ 241 µM)	–	–	–	–	–	–
CC[C@H](C)CCCCC(=O)N[C@@H](CCN)C(=O)N[C@H](C(=O)N[C@@H](CCN)C(=O)N[C@H]1CCNC(=O)[C@H]([C@@H](C)O)NC(=O)[C@H](CCN)NC(=O)[C@H](CCN)NC(=O)[C@H](CC(C)C)NC(=O)[C@@H](Cc2ccccc2)NC(=O)[C@H](CCN)NC1=O)[C@@H](C)O [Compound 42, (S)-6-methyloctanoyl-Dab-Thr-Dab-ring(4-10)[Dab-Dab-D-Phe-Leu-Dab-Dab-Thr]] (X2-[Dab]T[Dab][Dab][Dab][dF]L[Dab][Dab]T; lactam 4-C)	–	–	–	–	–	–	1 (≈ 0.831 µM)	0.5 (≈ 0.415 µM)	2 (≈ 1.66 µM)	32 (≈ 26.6 µM)	0.5 (≈ 0.415 µM)	71.3 ± 6.08 (≈ 59.2 µM)
CC[C@H](C)CCCCC(=O)N[C@@H](CCN)C(=O)N[C@H](C(=O)N[C@@H](CCN)C(=O)N[C@H]1CCNC(=O)[C@H]([C@@H](C)O)NC(=O)[C@H](CCN)NC(=O)[C@H](CCN)NC(=O)[C@H](CC(C)C)NC(=O)[C@@H](Cc2ccc(N)cc2)NC(=O)[C@H](CCN)NC1=O)[C@@H](C)O [Compound 11, (S)-6-methyloctanoyl-Dab-Thr-Dab-ring(4-10)[Dab-Dab-D-Phe(4-NH2)-Lue-Dab-Dab-Thr]] (X2-[Dab]T[Dab][Dab][Dab][dPhe(4-NH2)]L[Dab][Dab]T; lactam 4-C)	1 (≈ 0.821 µM)	1 (≈ 0.821 µM)	2 (≈ 1.64 µM)	128 (≈ 105 µM)	2 (≈ 1.64 µM)	166 ± 15.7 (≈ 137 µM)	–	–	–	–	–	–
CCC[C@@H]1NC(=O)[C@@H](CC(C)C)NC(=O)[C@H](CCN)NC(=O)[C@@H](NC(=O)[C@H](CCN)NC(=O)[C@@H](NC(=O)[C@H](CCN)NC(=O)CCCCC(C)C)[C@@H](C)O)CCNC(=O)[C@H]([C@@H](C)O)NC(=O)[C@H](CCN)NC(=O)[C@H](CCN)NC1=O [Compound 77, 6-methylheptanoyl-Dab-Thr-Dab-ring(4-10)[Dab-Dab-D-Leu-Nva-Dab-Dab-Thr]] ({Heptanoyl(6-Me)}-[Dab]T[Dab][Dab][Dab][dL][Nva][Dab][Dab]T; lactam 4-C)	0.5 (≈ 0.438 µM)	0.5 (≈ 0.438 µM)	1 (≈ 0.876 µM)	>128	0.5 (≈ 0.438 µM)	168 ± 12.5 (≈ 148 µM)	–	–	–	–	–	–
CCCCC(=O)CC(=O)N[C@@H](CCN)C(=O)N[C@H](C(=O)N[C@@H](CCN)C(=O)N[C@H]1CCNC(=O)[C@H]([C@@H](C)O)NC(=O)[C@H](CCN)NC(=O)[C@H](CCN)NC(=O)[C@H](CC(C)C)NC(=O)[C@@H](Cc2ccccc2)NC(=O)[C@H](CCN)NC1=O)[C@@H](C)O [Compound 4, 3-oxoheptanoyl-Dab-Thr-Dab-ring(4-10)[Dab-Dab-D-Phe-Lue-Dab-Dab-Thr]] (X3-[Dab]T[Dab][Dab][Dab][dF]L[Dab][Dab]T; lactam 4-C)	2 (≈ 1.68 µM)	0.5 (≈ 0.42 µM)	2 (≈ 1.68 µM)	128 (≈ 108 µM)	2 (≈ 1.68 µM)	110 ± 9.08 (≈ 92.2 µM)	–	–	–	–	–	–
CCCCCCCC(=O)N[C@@H](CCN)C(=O)N[C@H](C(=O)N[C@@H](CO)C(=O)N[C@H]1CCNC(=O)[C@H]([C@@H](C)O)NC(=O)[C@H](CCN)NC(=O)[C@H](CCN)NC(=O)[C@H](CC(C)C)NC(=O)[C@@H](Cc2ccccc2)NC(=O)[C@H](CCN)NC1=O)[C@@H](C)O [Compound 54, octanoyl-Dab-Thr-Ser-ring(4-10)[Dab-Dab-D-Phe-Leu-Dab-Dab-Thr]] (Octanoyl-[Dab]TS[Dab][Dab][dF]L[Dab][Dab]T; lactam 4-C)	0.5 (≈ 0.425 µM)	0.5 (≈ 0.425 µM)	1 (≈ 0.85 µM)	64 (≈ 54.4 µM)	1 (≈ 0.85 µM)	–	–	–	–	–	–	–
